ChEMBL document CHEMBL1201862, “PubChem BioAssay data set” (2004)
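Tested at 5 concentrations; 48 h exposure; 96-well plates; endpoints linearly interpolated, else capped at highest concentration. GI50: concentration for 50% inhibition of growth.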 Activity calls are given as the source filed them. No stated cut-off is given here; in the data, active = GI50 up to about 1.1 µM and inactive = higher.

What was measured:
Assay in all cases: NCI anticancer screen, dose series, 48 h
[1] = system: 786-0
[2] = system: A498
[3] = system: A549
[4] = system: ACHN
[5] = system: CAKI-1
[6] = system: CCRF-CEM
[7] = system: DU-145
[8] = system: EKVX
[9] = system: HCC 2998
[10] = system: HCT-116
[11] = system: HCT-15
[12] = system: HL-60
[13] = system: HOP-62
[14] = system: HOP-92
[15] = system: HT-29
[16] = system: Hs-578T
[17] = system: IGROV-1
[18] = system: K562
[19] = system: LOX IMVI
[20] = system: M14
[21] = system: MDA-MB-231
[22] = system: MDA-MB-435
[23] = system: MDA-N
[24] = system: MOLT-4
[25] = system: Malme-3M
[26] = system: NCI-H23
[27] = system: NCI-H460
[28] = system: NCI-H522
[29] = system: NCI/ADR-RES
[30] = system: OVCAR-3
[31] = system: OVCAR-4
[32] = system: OVCAR-5
[33] = system: OVCAR-8
[34] = system: PC-3
[35] = system: RPMI-8226
[36] = system: RXF 393
[37] = system: SF-268
[38] = system: SF-295
[39] = system: SF-539
[40] = system: SK-MEL-28
[41] = system: SK-MEL-2
[42] = system: SK-MEL-5
[43] = system: SK-OV-3
[44] = system: SNB-19
[45] = system: SNB-75
[46] = system: SR
[47] = system: SW-620
[48] = system: T47D
[49] = system: U-251
[50] = system: UACC-257
[51] = system: UACC-62
[52] = system: UO-31
[53] = system: COLO 205
[54] = system: KM12
[55] = system: MCF7
[56] = system: SN12C
[57] = system: TK-10

For OC(CC(O)(C(F)(F)F)C(F)(F)F)c1ccc(C(O)CC(O)(C(F)(F)F)C(F)(F)F)cc1 (centres undefined), the GI50 [1] was 20.4 µM (inactive), the GI50 [2] was 12.6 µM (inactive) and the GI50 [3] was 14.4 µM (inactive). The GI50 [4] was 14.4 µM (inactive), the GI50 [5] was 12.7 µM (inactive) and the GI50 [6] was 16.8 µM (inactive). For the same compound, the GI50 [7] was 15 µM (inactive), the GI50 [8] was 14.7 µM (inactive) and the GI50 [9] was 17.2 µM (inactive). For the same compound, the GI50 [10] was 11.8 µM (inactive), the GI50 [11] was 20.1 µM and the GI50 [12] was 17.1 µM (inactive). The GI50 [13] was 17 µM (inactive), the GI50 [14] was 13 µM (inactive) and the GI50 [15] was 12.3 µM (inactive). For the same compound, the GI50 [16] was 22 µM (inactive), the GI50 [17] was 10.9 µM (inactive) and the GI50 [18] was 15.9 µM (inactive). For the same compound, the GI50 [19] was 16.7 µM (inactive), the GI50 [20] was 15.9 µM (inactive) and the GI50 [21] was 14.3 µM (inactive). The GI50 [22] was 18.2 µM (inactive), the GI50 [23] was 19.5 µM (inactive) and the GI50 [24] was 16.3 µM (inactive). For the same compound, the GI50 [25] was 14.2 µM (inactive), the GI50 [26] was 12.9 µM (inactive) and the GI50 [27] was 14.7 µM (inactive). For the same compound, the GI50 [28] was 18.3 µM (inactive), the GI50 [29] was 14.6 µM (inactive) and the GI50 [30] was 6.38 µM (inactive). For the same compound, the GI50 [31] was 15.7 µM (inactive), the GI50 [32] was 17.1 µM (inactive) and the GI50 [33] was 15.9 µM (inactive). For the same compound, the GI50 [34] was 18.2 µM (inactive), the GI50 [35] was 15.6 µM (inactive) and the GI50 [36] was 15 µM (inactive). For the same compound, the GI50 [37] was 14.9 µM (inactive), the GI50 [38] was 18.2 µM (inactive) and the GI50 [39] was 15.7 µM (inactive). The GI50 [40] was 16 µM (inactive), the GI50 [41] was 22.3 µM (inactive) and the GI50 [42] was 13.9 µM (inactive). The GI50 [43] was 17 µM (inactive), the GI50 [44] was 17.1 µM (inactive) and the GI50 [45] was 17.5 µM (inactive). The GI50 [46] was 17.1 µM (inactive), the GI50 [47] was 19.2 µM (inactive) and the GI50 [48] was 13.3 µM (inactive). The GI50 [49] was 16.4 µM (inactive), the GI50 [50] was 18.1 µM (inactive) and the GI50 [51] was 12.2 µM (inactive). For the same compound, the GI50 [52] was 10.8 µM (inactive).

O=C(/C=C\c1ccccc1)Oc1ccc(/C=C2\CCCCC2=O)cc1 was tested, and the GI50 [1] was 37.4 µM (inactive), the GI50 [2] was > 100 µM (inactive) and the GI50 [3] was 46.6 µM (inactive). For the same compound, the GI50 [4] was 37.2 µM (inactive), the GI50 [5] was 24.3 µM (inactive) and the GI50 [6] was 4.98 µM (inactive). The GI50 [53] was 19.9 µM (inactive), the GI50 [7] was > 100 µM (inactive) and the GI50 [8] was 57.1 µM (inactive). The GI50 [9] was 47.3 µM (inactive), the GI50 [10] was 26.1 µM (inactive) and the GI50 [11] was 23.3 µM. The GI50 [12] was 14.9 µM (inactive), the GI50 [13] was 72.1 µM (inactive) and the GI50 [14] was 69 µM (inactive). For the same compound, the GI50 [15] was 17.9 µM (inactive), the GI50 [16] was 61 µM (inactive) and the GI50 [17] was 37.8 µM (inactive). The GI50 [54] was 44 µM (inactive), the GI50 [19] was 60.4 µM (inactive) and the GI50 [20] was 40.6 µM (inactive). The GI50 [55] was 39.5 µM (inactive), the GI50 [21] was 41.6 µM (inactive) and the GI50 [22] was 26.8 µM (inactive). The GI50 [23] was 33.3 µM (inactive), the GI50 [24] was 0.955 µM (active) and the GI50 [25] was 38.9 µM (inactive). For the same compound, the GI50 [26] was 45.8 µM (inactive), the GI50 [27] was 73.5 µM (inactive) and the GI50 [28] was 48 µM (inactive). For the same compound, the GI50 [30] was 72.3 µM (inactive), the GI50 [31] was > 100 µM (inactive) and the GI50 [32] was > 100 µM (inactive). The GI50 [33] was 37.8 µM (inactive), the GI50 [34] was 46.9 µM (inactive) and the GI50 [35] was 21.5 µM (inactive). For the same compound, the GI50 [37] was 25.2 µM (inactive), the GI50 [38] was 41.2 µM (inactive) and the GI50 [39] was 28.7 µM (inactive). The GI50 [40] was 2.18 µM (inactive), the GI50 [41] was 39.2 µM (inactive) and the GI50 [42] was 18.9 µM (inactive). For the same compound, the GI50 [56] was 55.3 µM (inactive), the GI50 [44] was > 100 µM (inactive) and the GI50 [45] was > 100 µM (inactive). The GI50 [47] was 40.3 µM (inactive), the GI50 [48] was 92.5 µM (inactive) and the GI50 [57] was 15.1 µM (inactive). For the same compound, the GI50 [49] was 30.4 µM (inactive), the GI50 [50] was 16.6 µM (inactive) and the GI50 [51] was 0.1 µM (active). For the same compound, the GI50 [52] was 64.7 µM (inactive).
